Measurements reported in ChEMBL document CHEMBL1151745, “Identification of potent, selective, and metabolically stable peptide antagonists to the calcitonin gene-related peptide (CGRP) receptor” (J Med Chem, 2008).
Calls of active or inactive are those of the source. The rule behind the calls is not given here. Where a SMILES comes first, the peptide text is derived from it. [ ]: non-standard residue; d: D form. Igl = N[C@H](C(=O)O)C1Cc2ccccc2C1; hArg = N=C(N)NCCCC[C@H](N)C(=O)O; Cit = NC(=O)NCCC[C@H](N)C(=O)O

Biological target: Calcitonin gene-related peptide type 1 receptor (Homo sapiens) (UniProt Q16602)
Assay: Agonist activity at human CGRP1 receptor in human SK-N-MC cells

Chain of Calcitonin gene-related peptide type 1 receptor (Homo sapiens) (Q16602 whole entry, looked up): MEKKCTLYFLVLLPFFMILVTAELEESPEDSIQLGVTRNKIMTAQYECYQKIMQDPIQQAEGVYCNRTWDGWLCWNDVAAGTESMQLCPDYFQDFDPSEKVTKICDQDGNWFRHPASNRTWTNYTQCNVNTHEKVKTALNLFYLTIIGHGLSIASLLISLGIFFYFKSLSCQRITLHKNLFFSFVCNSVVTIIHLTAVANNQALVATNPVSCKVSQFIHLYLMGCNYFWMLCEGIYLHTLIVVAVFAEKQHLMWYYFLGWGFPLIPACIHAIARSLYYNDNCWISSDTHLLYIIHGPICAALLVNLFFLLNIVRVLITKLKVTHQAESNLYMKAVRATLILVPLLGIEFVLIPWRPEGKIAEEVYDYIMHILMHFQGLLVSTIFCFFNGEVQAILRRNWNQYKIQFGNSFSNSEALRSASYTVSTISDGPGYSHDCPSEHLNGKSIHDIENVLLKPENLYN

Row | SMILES | Activity
1 | CC(=O)N[C@@H](Cc1c[nH]c2ccccc12)C(=O)N[C@H](C(=O)N[C@H](C(=O)N[C@@H](Cc1cnc[nH]1)C(=O)N[C@@H](CCCNC(N)=O)C(=O)N[C@@H](CC(C)C)C(=O)N[C@@H](C)C(=O)NCC(=O)N[C@@H](CC(C)C)C(=O)N[C@@H](CC(C)C)C(=O)N[C@@H](CO)C(=O)N[C@@H](CCCNC(N)=O)C(=O)N[C@@H](CO)C(=O)NCC(=O)NCC(=O)N[C@H](C(=O)N[C@H](C(=O)N[C@@H](CCCCNC(=N)N)C(=O)N[C@@H](CCCCN)C(=O)N[C@@H](CC(N)=O)C(=O)N[C@@H](Cc1ccccc1)C(=O)N[C@H](C(=O)N1CCC[C@H]1C(=O)N[C@H](C(=O)N[C@@H](CC(=O)O)C(=O)N[C@H](C(=O)NCC(=O)N1CCC[C@H]1CC(=O)N[C@@H](Cc1ccccc1)C(=O)N[C@@H](C)C(=O)N[C@@H](Cc1ccccc1)C(N)=O)C(C)C)[C@@H](C)O)C(C)C)C(C)C)C(C)C)[C@@H](C)O)C(C)C | inactive
2 | CC(=O)N[C@@H](Cc1c[nH]c2ccccc12)C(=O)N[C@H](C(=O)N[C@H](C(=O)N[C@@H](Cc1cnc[nH]1)C(=O)N[C@@H](CCCNC(N)=O)C(=O)N[C@@H](CC(C)C)C(=O)N[C@@H](C)C(=O)NCC(=O)N[C@@H](CC(C)C)C(=O)N[C@@H](CC(C)C)C(=O)N[C@@H](CO)C(=O)N[C@@H](CCCNC(N)=O)C(=O)N[C@@H](CO)C(=O)NCC(=O)NCC(=O)N[C@H](C(=O)N[C@H](C(=O)N[C@@H](CCCCNC(=N)N)C(=O)N[C@@H](CCCCN)C(=O)N[C@@H](CC(N)=O)C(=O)N[C@@H](Cc1ccccc1)C(=O)N[C@H](C(=O)N1CCC[C@H]1C(=O)N[C@H](C(=O)N[C@@H](CC(=O)O)C(=O)N[C@H](C(=O)NCC(=O)NC(C)(C)C(=O)N[C@@H](Cc1ccccc1)C(=O)N[C@@H](C)C(=O)N[C@@H](Cc1ccccc1)C(N)=O)C(C)C)[C@@H](C)O)C(C)C)C(C)C)C(C)C)[C@@H](C)O)C(C)C | inactive
3 | CC(=O)N[C@@H](Cc1c[nH]c2ccccc12)C(=O)N[C@H](C(=O)N[C@H](C(=O)N[C@@H](Cc1cnc[nH]1)C(=O)N[C@@H](CCCNC(N)=O)C(=O)N[C@@H](CC(C)C)C(=O)N[C@@H](C)C(=O)NCC(=O)N[C@@H](CC(C)C)C(=O)N[C@@H](CC(C)C)C(=O)N[C@@H](CO)C(=O)N[C@@H](CCCNC(N)=O)C(=O)N[C@@H](CO)C(=O)NCC(=O)NCC(=O)N[C@H](C(=O)N[C@H](C(=O)N[C@@H](CCCCNC(=N)N)C(=O)N[C@@H](CCCCN)C(=O)N[C@@H](CC(N)=O)C(=O)N[C@@H](Cc1ccccc1)C(=O)N[C@H](C(=O)N1C(C(=O)N[C@H](C(=O)N[C@@H](CC(=O)O)C(=O)N[C@H](C(=O)NCC(=O)N2C3CCCCC3C[C@H]2C(=O)N[C@@H](Cc2ccccc2)C(=O)N[C@@H](C)C(=O)N[C@@H](Cc2ccccc2)C(N)=O)C(C)C)[C@@H](C)O)CC2CCCCC21)C(C)C)C(C)C)C(C)C)[C@@H](C)O)C(C)C (stereo not given in full) | inactive
4 | CC(=O)N[C@H](C(=O)N[C@H](C(=O)N[C@@H](Cc1cnc[nH]1)C(=O)N[C@@H](CCCNC(=N)N)C(=O)N[C@@H](CC(C)C)C(=O)N[C@@H](C)C(=O)NCC(=O)N[C@@H](CC(C)C)C(=O)N[C@@H](CC(C)C)C(=O)N[C@@H](CO)C(=O)N[C@@H](CCCNC(=N)N)C(=O)N[C@@H](CO)C(=O)NCC(=O)NCC(=O)N[C@H](C(=O)N[C@H](C(=O)N[C@@H](CCCNC(=N)N)C(=O)N[C@@H](CCCCN)C(=O)N[C@@H](CC(N)=O)C(=O)N[C@@H](Cc1ccccc1)C(=O)N[C@H](C(=O)N1CCC[C@H]1C(=O)N[C@H](C(=O)N[C@@H](CC(=O)O)C(=O)N[C@H](C(=O)NCC(=O)N1CCC[C@H]1C(=O)N[C@@H](Cc1ccccc1)C(=O)N[C@@H](C)C(=O)N[C@@H](Cc1ccccc1)C(N)=O)C(C)C)[C@@H](C)O)C(C)C)C(C)C)C(C)C)[C@@H](C)O)C(C)C (Ac-VTHRLAGLLSRSGGVVRKNFVPTDVGPFAF-NH2) | inactive
5 | CC(C)C[C@H](NC(=O)CNC(=O)[C@H](C)NC(=O)[C@H](CC(C)C)NC(=O)[C@H](CCCNC(=N)N)NC(=O)[C@H](Cc1cnc[nH]1)NC(=O)[C@@H](NC(=O)[C@@H](NC(=O)[C@@H](N)Cc1c[nH]c2ccccc12)C(C)C)[C@@H](C)O)C(=O)N[C@@H](CC(C)C)C(=O)N[C@@H](CO)C(=O)N[C@@H](CCCNC(=N)N)C(=O)N[C@@H](CO)C(=O)NCC(=O)NCC(=O)N[C@H](C(=O)N[C@H](C(=O)N[C@@H](CCCCN)C(=O)N[C@@H](CC(N)=O)C(=O)N[C@@H](CC(N)=O)C(=O)N[C@@H](Cc1ccccc1)C(=O)N[C@H](C(=O)N1CCC[C@H]1C(=O)N[C@H](C(=O)N[C@@H](CC(N)=O)C(=O)N[C@H](C(=O)NCC(=O)N[C@@H](CO)C(=O)N[C@@H](CCCCN)C(=O)N[C@@H](C)C(=O)N[C@@H](Cc1ccccc1)C(N)=O)C(C)C)[C@@H](C)O)C(C)C)C(C)C)C(C)C | inactive
6 | CC(=O)N[C@@H](Cc1c[nH]c2ccccc12)C(=O)N[C@H](C(=O)N[C@H](C(=O)N[C@@H](Cc1cnc[nH]1)C(=O)N[C@@H](CCCNC(N)=O)C(=O)N[C@@H](CC(C)C)C(=O)N[C@@H](C)C(=O)NCC(=O)N[C@@H](CC(C)C)C(=O)N[C@@H](CC(C)C)C(=O)N[C@@H](CO)C(=O)N[C@@H](CCCNC(N)=O)C(=O)N[C@@H](CO)C(=O)NCC(=O)NCC(=O)N[C@H](C(=O)N[C@H](C(=O)N[C@@H](CCCCNC(=N)N)C(=O)N[C@@H](CCCCN)C(=O)N[C@@H](CC(N)=O)C(=O)N[C@@H](Cc1ccccc1)C(=O)N[C@H](C(=O)N1CCC[C@H]1C(=O)N[C@H](C(=O)N[C@@H](CC(=O)O)C(=O)N[C@H](C(=O)NCC(=O)N1CCC[C@@H]1C(=O)N[C@@H](Cc1ccccc1)C(=O)N[C@@H](C)C(=O)N[C@@H](Cc1ccccc1)C(N)=O)C(C)C)[C@@H](C)O)C(C)C)C(C)C)C(C)C)[C@@H](C)O)C(C)C | inactive
7 | CC(=O)N[C@@H](Cc1c[nH]c2ccccc12)C(=O)N[C@H](C(=O)N[C@H](C(=O)N[C@@H](Cc1cnc[nH]1)C(=O)N[C@@H](CCCNC(N)=O)C(=O)N[C@@H](CC(C)C)C(=O)N[C@@H](C)C(=O)NCC(=O)N[C@@H](CC(C)C)C(=O)N[C@@H](CC(C)C)C(=O)N[C@@H](CO)C(=O)N[C@@H](CCCNC(N)=O)C(=O)N[C@@H](CO)C(=O)NCC(=O)NCC(=O)N[C@H](C(=O)N[C@H](C(=O)N[C@@H](CCCCNC(=N)N)C(=O)N[C@@H](CCCCN)C(=O)N[C@@H](CC(N)=O)C(=O)N[C@@H](Cc1ccccc1)C(=O)N[C@H](C(=O)N1CCC[C@H]1C(=O)N[C@H](C(=O)N[C@@H](CC(=O)O)C(=O)N[C@H](C(=O)NCC(=O)N1CSC[C@H]1C(=O)N[C@@H](Cc1ccccc1)C(=O)N[C@@H](C)C(=O)N[C@@H](Cc1ccccc1)C(N)=O)C(C)C)[C@@H](C)O)C(C)C)C(C)C)C(C)C)[C@@H](C)O)C(C)C | inactive
8 | CC(=O)N[C@@H](Cc1c[nH]c2ccccc12)C(=O)N[C@H](C(=O)N[C@H](C(=O)N[C@@H](Cc1cnc[nH]1)C(=O)N[C@@H](CCCNC(N)=O)C(=O)N[C@@H](CC(C)C)C(=O)N[C@@H](C)C(=O)NCC(=O)N[C@@H](CC(C)C)C(=O)N[C@@H](CC(C)C)C(=O)N[C@@H](CO)C(=O)N[C@@H](CCCNC(N)=O)C(=O)N[C@@H](CO)C(=O)NCC(=O)NCC(=O)N[C@H](C(=O)N[C@H](C(=O)N[C@@H](CCCCNC(=N)N)C(=O)N[C@@H](CCCCN)C(=O)N[C@@H](CC(N)=O)C(=O)N[C@@H](Cc1ccccc1)C(=O)N[C@H](C(=O)N1CCC[C@H]1C(=O)N[C@H](C(=O)N[C@@H](CC(=O)O)C(=O)N[C@H](C(=O)NCC(=O)NC1(C(=O)N[C@@H](Cc2ccccc2)C(=O)N[C@@H](C)C(=O)N[C@@H](Cc2ccccc2)C(N)=O)CCNCC1)C(C)C)[C@@H](C)O)C(C)C)C(C)C)C(C)C)[C@@H](C)O)C(C)C | inactive
9 | CC(=O)N[C@@H](Cc1c[nH]c2ccccc12)C(=O)N[C@H](C(=O)N[C@H](C(=O)N[C@@H](Cc1cnc[nH]1)C(=O)N[C@@H](CCCNC(N)=O)C(=O)N[C@@H](CC(C)C)C(=O)N[C@@H](C)C(=O)NCC(=O)N[C@@H](CC(C)C)C(=O)N[C@@H](CC(C)C)C(=O)N[C@@H](CO)C(=O)N[C@@H](CCCNC(N)=O)C(=O)N[C@@H](CO)C(=O)NCC(=O)NCC(=O)N[C@H](C(=O)N[C@H](C(=O)N[C@@H](CCCCNC(=N)N)C(=O)N[C@@H](CCCCN)C(=O)N[C@@H](CC(N)=O)C(=O)N[C@@H](Cc1ccccc1)C(=O)N[C@H](C(=O)N1CCC[C@H]1C(=O)N[C@H](C(=O)N[C@@H](CC(=O)O)C(=O)N[C@H](C(=O)NCC(=O)N1CCC[C@H]1C(=O)N[C@H](C(=O)N[C@@H](C)C(=O)N[C@@H](Cc1ccccc1)C(N)=O)C1Cc2ccccc2C1)C(C)C)[C@@H](C)O)C(C)C)C(C)C)C(C)C)[C@@H](C)O)C(C)C (Ac-WVTH[Cit]LAGLLS[Cit]SGGVV[hArg]KNFVPTDVGP[Igl]AF-NH2) | inactive
10 | CC(=O)N[C@@H](Cc1c[nH]c2ccccc12)C(=O)N[C@H](C(=O)N[C@H](C(=O)N[C@@H](Cc1cnc[nH]1)C(=O)N[C@@H](CCCNC(N)=O)C(=O)N[C@@H](CC(C)C)C(=O)N[C@@H](C)C(=O)NCC(=O)N[C@@H](CC(C)C)C(=O)N[C@@H](CC(C)C)C(=O)N[C@@H](CO)C(=O)N[C@@H](CCCNC(N)=O)C(=O)N[C@@H](CO)C(=O)NCC(=O)NCC(=O)N[C@H](C(=O)N[C@H](C(=O)N[C@@H](CCCNC(=N)N)C(=O)N[C@@H](CCCCN)C(=O)N[C@@H](CC(N)=O)C(=O)N[C@@H](Cc1ccccc1)C(=O)N[C@H](C(=O)N1CCC[C@H]1C(=O)N[C@H](C(=O)N[C@@H](CC(=O)O)C(=O)N[C@H](C(=O)NCC(=O)N1C2CCCCC2C[C@H]1C(=O)N[C@@H](Cc1ccccc1)C(=O)N[C@@H](C)C(=O)N[C@@H](Cc1ccccc1)C(N)=O)C(C)C)[C@@H](C)O)C(C)C)C(C)C)C(C)C)[C@@H](C)O)C(C)C (stereo not given in full) | inactive
